Assay results from ChEMBL document CHEMBL1201862, “PubChem BioAssay data set” (2004).
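The compound was tested at five concentrations on cells cultured in 96-well plates, with a 48-hour exposure period. The concentration for 50% growth inhibition is given as GI50.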 The source made the active and inactive calls. No stated cut-off is given here; in the data, active = GI50 up to about 1.1 µM and inactive = higher.

Legend:
Assay in all cases: NCI-60 cell line screen, 48 h
SK-MEL-28 = system: SK-MEL-28
A549 = system: A549
SK-OV-3 = system: SK-OV-3
HCT-116 = system: HCT-116
NCI/ADR-RES = system: NCI/ADR-RES
UO-31 = system: UO-31
HCC 2998 = system: HCC 2998
SR = system: SR
KM12 = system: KM12
CAKI-1 = system: CAKI-1
UACC-62 = system: UACC-62
SN12C = system: SN12C
IGROV-1 = system: IGROV-1
SW-620 = system: SW-620
786-0 = system: 786-0
SNB-19 = system: SNB-19
RXF 393 = system: RXF 393
MDA-MB-231 = system: MDA-MB-231
NCI-H522 = system: NCI-H522
NCI-H23 = system: NCI-H23
U-251 = system: U-251
NCI-H460 = system: NCI-H460
CCRF-CEM = system: CCRF-CEM
Hs-578T = system: Hs-578T
K562 = system: K562
OVCAR-3 = system: OVCAR-3
MDA-N = system: MDA-N
LOX IMVI = system: LOX IMVI
A498 = system: A498
SNB-75 = system: SNB-75
MOLT-4 = system: MOLT-4
HT-29 = system: HT-29
HOP-62 = system: HOP-62
MDA-MB-435 = system: MDA-MB-435
M14 = system: M14
HCT-15 = system: HCT-15
DU-145 = system: DU-145
BT-549 = system: BT-549
T47D = system: T47D
SF-268 = system: SF-268
Malme-3M = system: Malme-3M
OVCAR-5 = system: OVCAR-5
COLO 205 = system: COLO 205
PC-3 = system: PC-3
SK-MEL-5 = system: SK-MEL-5
HL-60 = system: HL-60
NCI-H226 = system: NCI-H226
MCF7 = system: MCF7
SK-MEL-2 = system: SK-MEL-2
EKVX = system: EKVX
ACHN = system: ACHN
OVCAR-8 = system: OVCAR-8
OVCAR-4 = system: OVCAR-4
RPMI-8226 = system: RPMI-8226
SF-295 = system: SF-295

COC(=O)[C@H](Cc1ccccc1)NC(=O)N(CCNC(=O)OC(C)(C)C)c1ccccc1
GI50 (SK-MEL-28): > 100 µM (inactive)
GI50 (A549): > 100 µM (inactive)
GI50 (SK-OV-3): > 100 µM (inactive)
GI50 (HCT-116): > 100 µM (inactive)
GI50 (NCI/ADR-RES): > 100 µM (inactive)
GI50 (UO-31): > 100 µM (inactive)
GI50 (HCC 2998): > 100 µM (inactive)
GI50 (SR): > 100 µM (inactive)
GI50 (KM12): > 100 µM (inactive)
GI50 (CAKI-1): > 100 µM (inactive)
GI50 (UACC-62): > 100 µM (inactive)
GI50 (SN12C): > 100 µM (inactive)
GI50 (IGROV-1): > 100 µM (inactive)
GI50 (SW-620): > 100 µM (inactive)
GI50 (786-0): > 100 µM (inactive)
GI50 (SNB-19): > 100 µM (inactive)
GI50 (RXF 393): 87.1 µM (inactive)
GI50 (MDA-MB-231): > 100 µM (inactive)
GI50 (NCI-H522): > 100 µM (inactive)
GI50 (NCI-H23): > 100 µM (inactive)
GI50 (U-251): > 100 µM (inactive)
GI50 (NCI-H460): > 100 µM (inactive)
GI50 (CCRF-CEM): > 100 µM (inactive)
GI50 (Hs-578T): > 100 µM (inactive)
GI50 (K562): > 100 µM (inactive)
GI50 (OVCAR-3): > 100 µM (inactive)
GI50 (MDA-N): > 100 µM (inactive)
GI50 (LOX IMVI): > 100 µM (inactive)
GI50 (A498): > 100 µM (inactive)
GI50 (SNB-75): > 100 µM (inactive)
GI50 (MOLT-4): > 100 µM (inactive)
GI50 (HT-29): > 100 µM (inactive)
GI50 (HOP-62): > 100 µM (inactive)
GI50 (MDA-MB-435): > 100 µM (inactive)
GI50 (M14): > 100 µM (inactive)
GI50 (HCT-15): > 100 µM
GI50 (DU-145): > 100 µM (inactive)
GI50 (BT-549): > 100 µM (inactive)
GI50 (T47D): 51.4 µM (inactive)
GI50 (SF-268): > 100 µM (inactive)
GI50 (Malme-3M): > 100 µM (inactive)
GI50 (OVCAR-5): > 100 µM (inactive)
GI50 (COLO 205): > 100 µM (inactive)
GI50 (PC-3): > 100 µM (inactive)
GI50 (SK-MEL-5): > 100 µM (inactive)
GI50 (HL-60): > 100 µM (inactive)
GI50 (NCI-H226): > 100 µM (inactive)
GI50 (MCF7): > 100 µM (inactive)
GI50 (SK-MEL-2): > 100 µM (inactive)
GI50 (EKVX): > 100 µM (inactive)
GI50 (ACHN): > 100 µM (inactive)
GI50 (OVCAR-8): > 100 µM (inactive)
GI50 (OVCAR-4): > 100 µM (inactive)
GI50 (RPMI-8226): > 100 µM (inactive)
GI50 (SF-295): > 100 µM (inactive)
